Tested on: Rh18 complex spheroid viability, percent test/control
Assay: Anticancer human tumor Rh18 cell line growth inhibition [Asc];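 also: spheroids exposed to compound for 7 days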;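 as to viability, T/C: 100% = DMSO vehicle control wells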
Conditions: for IC50: curve of first compound; for viability, T/C: stronger effect = lower value
How it was run: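 Tumor cells were grown as multicellular spheroids with stromal HUVEC and mesenchymal stem cells and treated singly or in combination. Concentrations fell in half-log steps from the clinical Cmax, or from 10 microM where none was known.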

[1] = second compound 0.03 µM, first compound 0.0316 µM
[2] = second compound 0.03 µM, first compound 0.1 µM
[3] = second compound 0.03 µM, first compound 0.316 µM
[4] = second compound 0.03 µM, first compound 1 µM
[5] = second compound 0.03 µM, first compound 3.16 µM
[6] = second compound 0.03 µM, first compound 10 µM
[7] = second compound 0.0949 µM, first compound 0.0316 µM
[8] = second compound 0.0949 µM, first compound 0.1 µM
[9] = second compound 0.0949 µM, first compound 0.316 µM
[10] = second compound 0.0949 µM, first compound 1 µM
[11] = second compound 0.0949 µM, first compound 3.16 µM
[12] = second compound 0.0949 µM, first compound 10 µM
[13] = second compound 0.3 µM, first compound 0.0316 µM
[14] = second compound 0.3 µM, first compound 0.1 µM
[15] = second compound 0.3 µM, first compound 0.316 µM
[16] = second compound 0.3 µM, first compound 1 µM
[17] = second compound 0.3 µM, first compound 3.16 µM
[18] = second compound 0.3 µM, first compound 10 µM
[19] = second compound 0.949 µM, first compound 0.0316 µM
[20] = second compound 0.949 µM, first compound 0.1 µM
[21] = second compound 0.949 µM, first compound 0.316 µM
[22] = second compound 0.949 µM, first compound 1 µM
[23] = second compound 0.949 µM, first compound 3.16 µM
[24] = second compound 0.949 µM, first compound 10 µM
[25] = second compound 3 µM, first compound 0.0316 µM
[26] = second compound 3 µM, first compound 0.1 µM
[27] = second compound 3 µM, first compound 0.316 µM
[28] = second compound 3 µM, first compound 1 µM
[29] = second compound 3 µM, first compound 3.16 µM
[30] = second compound 3 µM, first compound 10 µM
[31] = second compound 0.03 µM, first compound 0.00316 µM
[32] = second compound 0.03 µM, first compound 0.01 µM
[33] = second compound 0.0949 µM, first compound 0.00316 µM
[34] = second compound 0.0949 µM, first compound 0.01 µM
[35] = second compound 0.3 µM, first compound 0.00316 µM
[36] = second compound 0.3 µM, first compound 0.01 µM
[37] = second compound 0.949 µM, first compound 0.00316 µM
[38] = second compound 0.949 µM, first compound 0.01 µM
[39] = second compound 3 µM, first compound 0.00316 µM
[40] = second compound 3 µM, first compound 0.01 µM

## C#Cc1c(F)ccc2cc(O)cc(-c3ncc4c(N5CC6CCC(C5)N6)nc(OCC56CCCN5CC(F)C6)nc4c3F)c12 (stereo not given) + CCN1C(C(=O)NC23CCC(C(=O)O)(CC2)CC3)C(c2cccc(Cl)c2F)C2(C(=O)Nc3cc(Cl)ccc32)C12CCCCC2
Second compound 0.03 µM
  IC50: < 0.0316 µM
Second compound 0.0949 µM
  IC50: < 0.0316 µM
Second compound 0.3 µM
  IC50: < 0.0316 µM
Second compound 0.949 µM
  IC50: < 0.0316 µM
Second compound 3 µM
  IC50: < 0.0316 µM
[1]
  viability, T/C: 42.7%
[2]
  viability, T/C: 45.1%
[3]
  viability, T/C: 43.9%
[4]
  viability, T/C: 40.4%
[5]
  viability, T/C: 41.8%
[6]
  viability, T/C: 46.6%
[7]
  viability, T/C: 25.1%
[8]
  viability, T/C: 24.1%
[9]
  viability, T/C: 22.1%
[10]
  viability, T/C: 28.2%
[11]
  viability, T/C: 23.6%
[12]
  viability, T/C: 25.3%
[13]
  viability, T/C: 13.1%
[14]
  viability, T/C: 13.9%
[15]
  viability, T/C: 14.4%
[16]
  viability, T/C: 12.6%
[17]
  viability, T/C: 15.6%
[18]
  viability, T/C: 13.7%
[19]
  viability, T/C: 11.7%
[20]
  viability, T/C: 12.7%
[21]
  viability, T/C: 11%
[22]
  viability, T/C: 12.4%
[23]
  viability, T/C: 12.3%
[24]
  viability, T/C: 10.5%
[25]
  viability, T/C: 8.99%
[26]
  viability, T/C: 12.6%
[27]
  viability, T/C: 12.4%
[28]
  viability, T/C: 11.5%
[29]
  viability, T/C: 8.93%
[30]
  viability, T/C: 11.6%

## C=C(F)C(=O)N1CCN(c2nc(OCC3CCCN3C)nc3c2CCN(c2cccc4cccc(Cl)c24)C3)CC1CC#N (stereo not given) + CCN1C(C(=O)NC23CCC(C(=O)O)(CC2)CC3)C(c2cccc(Cl)c2F)C2(C(=O)Nc3cc(Cl)ccc32)C12CCCCC2
Second compound 0.03 µM
  IC50: < 0.0316 µM
Second compound 0.0949 µM
  IC50: < 0.0316 µM
Second compound 0.3 µM
  IC50: < 0.0316 µM
Second compound 0.949 µM
  IC50: < 0.0316 µM
Second compound 3 µM
  IC50: < 0.0316 µM
[1]
  viability, T/C: 25.2%
[2]
  viability, T/C: 28.7%
[3]
  viability, T/C: 35.2%
[4]
  viability, T/C: 32.9%
[5]
  viability, T/C: 31.6%
[6]
  viability, T/C: 0.2%
[7]
  viability, T/C: 19.6%
[8]
  viability, T/C: 20.5%
[9]
  viability, T/C: 17.7%
[10]
  viability, T/C: 18.5%
[11]
  viability, T/C: 7.46%
[12]
  viability, T/C: 0.15%
[13]
  viability, T/C: 10.7%
[14]
  viability, T/C: 10.4%
[15]
  viability, T/C: 9.23%
[16]
  viability, T/C: 7.64%
[17]
  viability, T/C: 3.23%
[18]
  viability, T/C: 0.14%
[19]
  viability, T/C: 8.48%
[20]
  viability, T/C: 8.88%
[21]
  viability, T/C: 8.35%
[22]
  viability, T/C: 6.27%
[23]
  viability, T/C: 2.4%
[24]
  viability, T/C: 0.14%
[25]
  viability, T/C: 7.28%
[26]
  viability, T/C: 7.78%
[27]
  viability, T/C: 8.39%
[28]
  viability, T/C: 5.04%
[29]
  viability, T/C: 2.37%
[30]
  viability, T/C: 0.17%

## C=CC(=O)N1CCN(c2nc(=O)n(-c3c(C)ccnc3C(C)C)c3nc(-c4c(O)cccc4F)c(F)cc23)C(C)C1 (stereo not given) + CCN1C(C(=O)NC23CCC(C(=O)O)(CC2)CC3)C(c2cccc(Cl)c2F)C2(C(=O)Nc3cc(Cl)ccc32)C12CCCCC2
Second compound 0.03 µM
  IC50: < 0.0316 µM
Second compound 0.0949 µM
  IC50: < 0.0316 µM
Second compound 0.3 µM
  IC50: < 0.0316 µM
Second compound 0.949 µM
  IC50: < 0.0316 µM
Second compound 3 µM
  IC50: < 0.0316 µM
[1]
  viability, T/C: 37.6%
[2]
  viability, T/C: 36.2%
[3]
  viability, T/C: 46.5%
[4]
  viability, T/C: 46.7%
[5]
  viability, T/C: 58.2%
[6]
  viability, T/C: 60.7%
[7]
  viability, T/C: 23.6%
[8]
  viability, T/C: 19.3%
[9]
  viability, T/C: 24.4%
[10]
  viability, T/C: 23.5%
[11]
  viability, T/C: 30.1%
[12]
  viability, T/C: 25.4%
[13]
  viability, T/C: 13.3%
[14]
  viability, T/C: 13.7%
[15]
  viability, T/C: 15%
[16]
  viability, T/C: 12.9%
[17]
  viability, T/C: 15.6%
[18]
  viability, T/C: 16%
[19]
  viability, T/C: 9.37%
[20]
  viability, T/C: 9.94%
[21]
  viability, T/C: 11.2%
[22]
  viability, T/C: 9.73%
[23]
  viability, T/C: 14.4%
[24]
  viability, T/C: 12.8%
[25]
  viability, T/C: 9.88%
[26]
  viability, T/C: 10%
[27]
  viability, T/C: 9.57%
[28]
  viability, T/C: 11.9%
[29]
  viability, T/C: 13.1%
[30]
  viability, T/C: 14.1%

## CNC(C)C(=O)NC1CN(S(=O)(=O)c2cccc(S(=O)(=O)N3CCC4CCC(C(=O)NC(c5ccccc5)c5ccccc5)N4C(=O)C(NC(=O)C(C)NC)C3)c2)CCC2CCC(C(=O)NC(c3ccccc3)c3ccccc3)N2C1=O (stereo not given) + CCN1C(C(=O)NC23CCC(C(=O)O)(CC2)CC3)C(c2cccc(Cl)c2F)C2(C(=O)Nc3cc(Cl)ccc32)C12CCCCC2
Second compound 0.03 µM
  IC50: < 0.00316 µM
Second compound 0.0949 µM
  IC50: < 0.00316 µM
Second compound 0.3 µM
  IC50: < 0.00316 µM
Second compound 0.949 µM
  IC50: < 0.00316 µM
Second compound 3 µM
  IC50: < 0.00316 µM
[31]
  viability, T/C: 30.1%
[32]
  viability, T/C: 27.8%
[1]
  viability, T/C: 23.9%
[2]
  viability, T/C: 18.8%
[3]
  viability, T/C: 19.3%
[4]
  viability, T/C: 17.5%
[33]
  viability, T/C: 16.2%
[34]
  viability, T/C: 19.3%
[7]
  viability, T/C: 16.2%
[8]
  viability, T/C: 16.8%
[9]
  viability, T/C: 13.7%
[10]
  viability, T/C: 16.5%
[35]
  viability, T/C: 13.8%
[36]
  viability, T/C: 11%
[13]
  viability, T/C: 14.3%
[14]
  viability, T/C: 12.4%
[15]
  viability, T/C: 8.81%
[16]
  viability, T/C: 10.8%
[37]
  viability, T/C: 10.8%
[38]
  viability, T/C: 10%
[19]
  viability, T/C: 10.5%
[20]
  viability, T/C: 9.19%
[21]
  viability, T/C: 9.26%
[22]
  viability, T/C: 10.8%
[39]
  viability, T/C: 10.8%
[40]
  viability, T/C: 8.24%
[25]
  viability, T/C: 9.03%
[26]
  viability, T/C: 9.34%
[27]
  viability, T/C: 11.1%
[28]
  viability, T/C: 10.5%

## COc1c(OCCCN2CCOCC2)ccc2c3n(c(=NC(=O)c4cnc(N)nc4)nc12)CCN3 + CCN1C(C(=O)NC23CCC(C(=O)O)(CC2)CC3)C(c2cccc(Cl)c2F)C2(C(=O)Nc3cc(Cl)ccc32)C12CCCCC2
Second compound 0.03 µM
  IC50: < 0.00316 µM
Second compound 0.0949 µM
  IC50: < 0.00316 µM
Second compound 0.3 µM
  IC50: < 0.00316 µM
Second compound 0.949 µM
  IC50: < 0.00316 µM
Second compound 3 µM
  IC50: < 0.00316 µM
[31]
  viability, T/C: 36.4%
[32]
  viability, T/C: 27.2%
[1]
  viability, T/C: 15.1%
[2]
  viability, T/C: 6.81%
[3]
  viability, T/C: 3.01%
[4]
  viability, T/C: 0.78%
[33]
  viability, T/C: 17.8%
[34]
  viability, T/C: 16.1%
[7]
  viability, T/C: 9.67%
[8]
  viability, T/C: 4.3%
[9]
  viability, T/C: 1.95%
[10]
  viability, T/C: 0.74%
[35]
  viability, T/C: 11%
[36]
  viability, T/C: 11%
[13]
  viability, T/C: 6.7%
[14]
  viability, T/C: 3.81%
[15]
  viability, T/C: 1.38%
[16]
  viability, T/C: 0.96%
[37]
  viability, T/C: 10.3%
[38]
  viability, T/C: 9.29%
[19]
  viability, T/C: 5.17%
[20]
  viability, T/C: 2.9%
[21]
  viability, T/C: 1.19%
[22]
  viability, T/C: 0.83%
[39]
  viability, T/C: 10.2%
[40]
  viability, T/C: 8.55%
[25]
  viability, T/C: 7.12%
[26]
  viability, T/C: 3.01%
[27]
  viability, T/C: 3.28%
[28]
  viability, T/C: 1.16%
